# Values quoted from earlier work in article PMC9186412, “Rational Framework for the Design of Trp- and Arg-Rich Peptide Antibiotics Against Multidrug-Resistant Bacteria” (Frontiers in Microbiology, 2022).
# System: CDC AR isolates
# Design: key: S (green), susceptible; I (blue), intermediate; R (red), resistant
# Conditions: Acinetobacter baumannii AB273, CDC AR isolate; data provided by the CDC; ref CDC; cited from earlier work
# Text: Supplement Table_3.XLSX, sheet "CDC AR isolates profiles" | column: G(-) strains
row,Compound,Antibiotic susceptibility profile
1,NCC[C@H](O)C(=O)N[C@@H]1C[C@H](N)[C@@H](O[C@H]2O[C@H](CN)[C@@H](O)[C@H](O)[C@H]2O)[C@H](O)[C@H]1O[C@H]1O[C@H](CO)[C@@H](O)[C@H](N)[C@H]1O [Amikacin],R
2,CCN1CCN(C(=O)N[C@@H](C(=O)N[C@@H]2C(=O)N3[C@@H]2SC(C)(C)[C@@H]3C(=O)O)c2ccccc2)C(=O)C1=O [Piperacillin],R
3,CO/N=C(\C(=O)N[C@@H]1C(=O)N2C(C(=O)O)=C(COC(C)=O)CS[C@H]12)c1csc(N)n1 [Cefotaxime],R

# Same assay, conditions: Acinetobacter baumannii AB274, CDC AR isolate; data provided by the CDC; ref CDC; cited from earlier work
row,Compound,Antibiotic susceptibility profile
1,NCC[C@H](O)C(=O)N[C@@H]1C[C@H](N)[C@@H](O[C@H]2O[C@H](CN)[C@@H](O)[C@H](O)[C@H]2O)[C@H](O)[C@H]1O[C@H]1O[C@H](CO)[C@@H](O)[C@H](N)[C@H]1O [Amikacin],S
2,CCN1CCN(C(=O)N[C@@H](C(=O)N[C@@H]2C(=O)N3[C@@H]2SC(C)(C)[C@@H]3C(=O)O)c2ccccc2)C(=O)C1=O [Piperacillin],R
3,CO/N=C(\C(=O)N[C@@H]1C(=O)N2C(C(=O)O)=C(COC(C)=O)CS[C@H]12)c1csc(N)n1 [Cefotaxime],R

# Same assay, conditions: Acinetobacter baumannii AB275, CDC AR isolate; data provided by the CDC; ref CDC; cited from earlier work
row,Compound,Antibiotic susceptibility profile
1,NCC[C@H](O)C(=O)N[C@@H]1C[C@H](N)[C@@H](O[C@H]2O[C@H](CN)[C@@H](O)[C@H](O)[C@H]2O)[C@H](O)[C@H]1O[C@H]1O[C@H](CO)[C@@H](O)[C@H](N)[C@H]1O [Amikacin],R
2,CCN1CCN(C(=O)N[C@@H](C(=O)N[C@@H]2C(=O)N3[C@@H]2SC(C)(C)[C@@H]3C(=O)O)c2ccccc2)C(=O)C1=O [Piperacillin],R
3,CO/N=C(\C(=O)N[C@@H]1C(=O)N2C(C(=O)O)=C(COC(C)=O)CS[C@H]12)c1csc(N)n1 [Cefotaxime],R

# Same assay, conditions: Acinetobacter baumannii AB276, CDC AR isolate; data provided by the CDC; ref CDC; cited from earlier work
row,Compound,Antibiotic susceptibility profile
1,NCC[C@H](O)C(=O)N[C@@H]1C[C@H](N)[C@@H](O[C@H]2O[C@H](CN)[C@@H](O)[C@H](O)[C@H]2O)[C@H](O)[C@H]1O[C@H]1O[C@H](CO)[C@@H](O)[C@H](N)[C@H]1O [Amikacin],I
2,CCN1CCN(C(=O)N[C@@H](C(=O)N[C@@H]2C(=O)N3[C@@H]2SC(C)(C)[C@@H]3C(=O)O)c2ccccc2)C(=O)C1=O [Piperacillin],R
3,CO/N=C(\C(=O)N[C@@H]1C(=O)N2C(C(=O)O)=C(COC(C)=O)CS[C@H]12)c1csc(N)n1 [Cefotaxime],R

# Same assay, conditions: Enterobacter cloacae E62, CDC AR isolate; data provided by the CDC; ref CDC; cited from earlier work
row,Compound,Antibiotic susceptibility profile
1,NCC[C@H](O)C(=O)N[C@@H]1C[C@H](N)[C@@H](O[C@H]2O[C@H](CN)[C@@H](O)[C@H](O)[C@H]2O)[C@H](O)[C@H]1O[C@H]1O[C@H](CO)[C@@H](O)[C@H](N)[C@H]1O [Amikacin],S
2,CO/N=C(\C(=O)N[C@@H]1C(=O)N2C(C(=O)O)=C(COC(C)=O)CS[C@H]12)c1csc(N)n1 [Cefotaxime],R

# Same assay, conditions: Enterobacter cloacae E544, CDC AR isolate; data provided by the CDC; ref CDC; cited from earlier work
row,Compound,Antibiotic susceptibility profile
1,NCC[C@H](O)C(=O)N[C@@H]1C[C@H](N)[C@@H](O[C@H]2O[C@H](CN)[C@@H](O)[C@H](O)[C@H]2O)[C@H](O)[C@H]1O[C@H]1O[C@H](CO)[C@@H](O)[C@H](N)[C@H]1O [Amikacin],S
2,CO/N=C(\C(=O)N[C@@H]1C(=O)N2C(C(=O)O)=C(COC(C)=O)CS[C@H]12)c1csc(N)n1 [Cefotaxime],R

# Same assay, conditions: Enterobacter cloacae E545, CDC AR isolate; data provided by the CDC; ref CDC; cited from earlier work
row,Compound,Antibiotic susceptibility profile
1,NCC[C@H](O)C(=O)N[C@@H]1C[C@H](N)[C@@H](O[C@H]2O[C@H](CN)[C@@H](O)[C@H](O)[C@H]2O)[C@H](O)[C@H]1O[C@H]1O[C@H](CO)[C@@H](O)[C@H](N)[C@H]1O [Amikacin],S
2,CO/N=C(\C(=O)N[C@@H]1C(=O)N2C(C(=O)O)=C(COC(C)=O)CS[C@H]12)c1csc(N)n1 [Cefotaxime],R

# Same assay, conditions: Enterobacter cloacae E546, CDC AR isolate; data provided by the CDC; ref CDC; cited from earlier work
row,Compound,Antibiotic susceptibility profile
1,NCC[C@H](O)C(=O)N[C@@H]1C[C@H](N)[C@@H](O[C@H]2O[C@H](CN)[C@@H](O)[C@H](O)[C@H]2O)[C@H](O)[C@H]1O[C@H]1O[C@H](CO)[C@@H](O)[C@H](N)[C@H]1O [Amikacin],R
2,CO/N=C(\C(=O)N[C@@H]1C(=O)N2C(C(=O)O)=C(COC(C)=O)CS[C@H]12)c1csc(N)n1 [Cefotaxime],R

# Same assay, conditions: Escherichia coli EC541, CDC AR isolate; data provided by the CDC; ref CDC; cited from earlier work
row,Compound,Antibiotic susceptibility profile
1,NCC[C@H](O)C(=O)N[C@@H]1C[C@H](N)[C@@H](O[C@H]2O[C@H](CN)[C@@H](O)[C@H](O)[C@H]2O)[C@H](O)[C@H]1O[C@H]1O[C@H](CO)[C@@H](O)[C@H](N)[C@H]1O [Amikacin],R
2,CO/N=C(\C(=O)N[C@@H]1C(=O)N2C(C(=O)O)=C(COC(C)=O)CS[C@H]12)c1csc(N)n1 [Cefotaxime],R

# Same assay, conditions: Escherichia coli EC543, CDC AR isolate; data provided by the CDC; ref CDC; cited from earlier work
row,Compound,Antibiotic susceptibility profile
1,NCC[C@H](O)C(=O)N[C@@H]1C[C@H](N)[C@@H](O[C@H]2O[C@H](CN)[C@@H](O)[C@H](O)[C@H]2O)[C@H](O)[C@H]1O[C@H]1O[C@H](CO)[C@@H](O)[C@H](N)[C@H]1O [Amikacin],S
2,CO/N=C(\C(=O)N[C@@H]1C(=O)N2C(C(=O)O)=C(COC(C)=O)CS[C@H]12)c1csc(N)n1 [Cefotaxime],R

# Same assay, conditions: Escherichia coli EC544, CDC AR isolate; data provided by the CDC; ref CDC; cited from earlier work
row,Compound,Antibiotic susceptibility profile
1,NCC[C@H](O)C(=O)N[C@@H]1C[C@H](N)[C@@H](O[C@H]2O[C@H](CN)[C@@H](O)[C@H](O)[C@H]2O)[C@H](O)[C@H]1O[C@H]1O[C@H](CO)[C@@H](O)[C@H](N)[C@H]1O [Amikacin],S
2,CO/N=C(\C(=O)N[C@@H]1C(=O)N2C(C(=O)O)=C(COC(C)=O)CS[C@H]12)c1csc(N)n1 [Cefotaxime],R

# Same assay, conditions: Escherichia coli EC549, CDC AR isolate; data provided by the CDC; ref CDC; cited from earlier work
row,Compound,Antibiotic susceptibility profile
1,NCC[C@H](O)C(=O)N[C@@H]1C[C@H](N)[C@@H](O[C@H]2O[C@H](CN)[C@@H](O)[C@H](O)[C@H]2O)[C@H](O)[C@H]1O[C@H]1O[C@H](CO)[C@@H](O)[C@H](N)[C@H]1O [Amikacin],S
2,CO/N=C(\C(=O)N[C@@H]1C(=O)N2C(C(=O)O)=C(COC(C)=O)CS[C@H]12)c1csc(N)n1 [Cefotaxime],R

# Same assay, conditions: Klebsiella pneumoniae KP542, CDC AR isolate; data provided by the CDC; ref CDC; cited from earlier work
row,Compound,Antibiotic susceptibility profile
1,NCC[C@H](O)C(=O)N[C@@H]1C[C@H](N)[C@@H](O[C@H]2O[C@H](CN)[C@@H](O)[C@H](O)[C@H]2O)[C@H](O)[C@H]1O[C@H]1O[C@H](CO)[C@@H](O)[C@H](N)[C@H]1O [Amikacin],R
2,CO/N=C(\C(=O)N[C@@H]1C(=O)N2C(C(=O)O)=C(COC(C)=O)CS[C@H]12)c1csc(N)n1 [Cefotaxime],R

# Same assay, conditions: Klebsiella pneumoniae KP548, CDC AR isolate; data provided by the CDC; ref CDC; cited from earlier work
row,Compound,Antibiotic susceptibility profile
1,NCC[C@H](O)C(=O)N[C@@H]1C[C@H](N)[C@@H](O[C@H]2O[C@H](CN)[C@@H](O)[C@H](O)[C@H]2O)[C@H](O)[C@H]1O[C@H]1O[C@H](CO)[C@@H](O)[C@H](N)[C@H]1O [Amikacin],S
2,CO/N=C(\C(=O)N[C@@H]1C(=O)N2C(C(=O)O)=C(COC(C)=O)CS[C@H]12)c1csc(N)n1 [Cefotaxime],R

# Same assay, conditions: Klebsiella pneumoniae KP550, CDC AR isolate; data provided by the CDC; ref CDC; cited from earlier work
row,Compound,Antibiotic susceptibility profile
1,NCC[C@H](O)C(=O)N[C@@H]1C[C@H](N)[C@@H](O[C@H]2O[C@H](CN)[C@@H](O)[C@H](O)[C@H]2O)[C@H](O)[C@H]1O[C@H]1O[C@H](CO)[C@@H](O)[C@H](N)[C@H]1O [Amikacin],S
2,CO/N=C(\C(=O)N[C@@H]1C(=O)N2C(C(=O)O)=C(COC(C)=O)CS[C@H]12)c1csc(N)n1 [Cefotaxime],R

# Same assay, conditions: Klebsiella pneumoniae KP552, CDC AR isolate; data provided by the CDC; ref CDC; cited from earlier work
row,Compound,Antibiotic susceptibility profile
1,NCC[C@H](O)C(=O)N[C@@H]1C[C@H](N)[C@@H](O[C@H]2O[C@H](CN)[C@@H](O)[C@H](O)[C@H]2O)[C@H](O)[C@H]1O[C@H]1O[C@H](CO)[C@@H](O)[C@H](N)[C@H]1O [Amikacin],S
2,CO/N=C(\C(=O)N[C@@H]1C(=O)N2C(C(=O)O)=C(COC(C)=O)CS[C@H]12)c1csc(N)n1 [Cefotaxime],R

# Same assay, conditions: Pseudomonas aeruginosa PA229, CDC AR isolate; data provided by the CDC; ref CDC; cited from earlier work
row,Compound,Antibiotic susceptibility profile
1,NCC[C@H](O)C(=O)N[C@@H]1C[C@H](N)[C@@H](O[C@H]2O[C@H](CN)[C@@H](O)[C@H](O)[C@H]2O)[C@H](O)[C@H]1O[C@H]1O[C@H](CO)[C@@H](O)[C@H](N)[C@H]1O [Amikacin],S
2,CCN1CCN(C(=O)N[C@@H](C(=O)N[C@@H]2C(=O)N3[C@@H]2SC(C)(C)[C@@H]3C(=O)O)c2ccccc2)C(=O)C1=O [Piperacillin],R

# Same assay, conditions: Pseudomonas aeruginosa PA230, CDC AR isolate; data provided by the CDC; ref CDC; cited from earlier work
row,Compound,Antibiotic susceptibility profile
1,NCC[C@H](O)C(=O)N[C@@H]1C[C@H](N)[C@@H](O[C@H]2O[C@H](CN)[C@@H](O)[C@H](O)[C@H]2O)[C@H](O)[C@H]1O[C@H]1O[C@H](CO)[C@@H](O)[C@H](N)[C@H]1O [Amikacin],R
2,CCN1CCN(C(=O)N[C@@H](C(=O)N[C@@H]2C(=O)N3[C@@H]2SC(C)(C)[C@@H]3C(=O)O)c2ccccc2)C(=O)C1=O [Piperacillin],R

# Same assay, conditions: Pseudomonas aeruginosa PA231, CDC AR isolate; data provided by the CDC; ref CDC; cited from earlier work
row,Compound,Antibiotic susceptibility profile
1,NCC[C@H](O)C(=O)N[C@@H]1C[C@H](N)[C@@H](O[C@H]2O[C@H](CN)[C@@H](O)[C@H](O)[C@H]2O)[C@H](O)[C@H]1O[C@H]1O[C@H](CO)[C@@H](O)[C@H](N)[C@H]1O [Amikacin],S
2,CCN1CCN(C(=O)N[C@@H](C(=O)N[C@@H]2C(=O)N3[C@@H]2SC(C)(C)[C@@H]3C(=O)O)c2ccccc2)C(=O)C1=O [Piperacillin],R

# Same assay, conditions: Pseudomonas aeruginosa PA232, CDC AR isolate; data provided by the CDC; ref CDC; cited from earlier work
row,Compound,Antibiotic susceptibility profile
1,NCC[C@H](O)C(=O)N[C@@H]1C[C@H](N)[C@@H](O[C@H]2O[C@H](CN)[C@@H](O)[C@H](O)[C@H]2O)[C@H](O)[C@H]1O[C@H]1O[C@H](CO)[C@@H](O)[C@H](N)[C@H]1O [Amikacin],S
2,CCN1CCN(C(=O)N[C@@H](C(=O)N[C@@H]2C(=O)N3[C@@H]2SC(C)(C)[C@@H]3C(=O)O)c2ccccc2)C(=O)C1=O [Piperacillin],S

# Same assay, conditions: Pseudomonas aeruginosa PA239, CDC AR isolate; data provided by the CDC; ref CDC; cited from earlier work
row,Compound,Antibiotic susceptibility profile
1,NCC[C@H](O)C(=O)N[C@@H]1C[C@H](N)[C@@H](O[C@H]2O[C@H](CN)[C@@H](O)[C@H](O)[C@H]2O)[C@H](O)[C@H]1O[C@H]1O[C@H](CO)[C@@H](O)[C@H](N)[C@H]1O [Amikacin],R
2,CCN1CCN(C(=O)N[C@@H](C(=O)N[C@@H]2C(=O)N3[C@@H]2SC(C)(C)[C@@H]3C(=O)O)c2ccccc2)C(=O)C1=O [Piperacillin],R
